# Experimental data published in patent publication US5849923A, “Heterocyclic-substituted naphthalenyl retinobenzoic acid derivatives” (Bristol-Myers Squibb Company, priority 1996, dated 1998).
# Like-named read-outs stand apart in the source and are kept apart here.
# Columns and labels:
# rhino mouse utriculi = test: Rhino mouse utriculi reduction assay; type: in vivo, hairless rhino mice (hr^rh /hr^rh); conditions: once daily for 5 days; for ED30 (concentration to reach 30% (half-maximum) utriculi reduction): topical in ethanol vehicle (50 μl), female rhino mice, 0.00033 mM to 16.5 mM; for activity in rhino mouse utriculi reduction model (in words): topical
# Protocol: Representatives from compounds of formula I were tested for their effect on utriculi reduction on rhino mouse and directly compared to all-trans retinoic acid.
# Six to nine week old female hairless rhino mice (hr^rh /hr^rh) were produced in the Bristol-Myers Squibb colony. Test retinoids in ethanol vehicle (50 μl) were applied to the dorsal area (approximately 1.5×3 cm^2) of rhino mice once daily for 5 days (Monday to Friday). For various retinoids, a dose response was obtained with concentrations ranging from 0.00033 mM to 16.5 mM. The animals were sacrificed on the following Monday by CO2 inhalation. A 7/8" full thickness punch was taken from the central dorsal area of each animal. The epidermis of the biopsy was removed from the dermis after incubation in 0.5% acetic acid overnight at 4° C. The separated epidermis was then fixed in formalin, dehydrated with ethanol, and cleared in xylene. To determine the utriculi diameter, each epidermis sheet was placed on a glass slide in xylene. For each specimen, the diameter of 40 utricules was measured with an image analysis system (IBM PC, Image Measure program and Olympus microscope with video camera). % Utriculi reduction was calculated as [formula]
# Since the maximum effect in this assay is approximately 60% utriculi reduction, the activity of various test compounds is reported as ED30 in Table 1, the concentration to reach 30% (half-maximum) utriculi reduction.
# [1] = system: squamous-cell carcinoma of the head and neck; conditions: Hong, W. K. et al., N. Engl. J. Med., 1990; cited from earlier work
# L2987 = test: Cytotoxicity assay (alamarBlue), lung line L2987, experiment 2; type: cell-based; conditions: Homo sapiens, read-out: IC50 values for L2987 experiment 2
# Protocol: FIG. 1 is the cytotoxicity dose response curves for lung line L2987. […] Briefly, the assayed involved plating 1000 cells per well in a volume of 120 μL in a 96 well flat-bottom dish (Corning) on day -1. Twenty-four hours later the appropriate dilution of a compound of formula I was added in a volume of 30 μL complete medium (final volume 150 μL). The plates were sealed with a plate sealer (Dynatech Labs) to prevent evaporation. On day 5 the mylar film was removed and 15 μL of sterile alamarblue was added to each well and the cells were incubated 37° C. 5% CO2 for two hours. Using a Vmax plate reader the optical density for each well was determined having the […]. The 100% signal was determined for cells grown in complete medium containing only 0.5% DMSO. All wells were set-up in triplicate and the mean values were plotted in FIG. 1.
# [2] = 120 h, L2987, experiment 2, read on day 5, alamarBlue
compound,measurement,setting,value
"CC1(C)CC=C(c2ccsc2)c2cc(C(=O)Nc3ccc(C(=O)O)cc3)ccc21 [I^2 e, 4-[[[[5,6-Dihydro-5,5-dimethyl-8-(3-thienyl)]-2-naphthalenyl]carbonyl]amino]benzoic acid]",ED30 (concentration to reach 30% (half-maximum) utriculi reduction),rhino mouse utriculi,3890 µM
CC1=C(/C=C/C(C)=C/C=C/C(C)=C\C(=O)O)C(C)(C)CCC1 [Isotretinoin],prevention of second primary tumors (in words),[1],useful in prevention of second primary tumors
"Cn1cccc1C1=CCC(C)(C)c2ccc(C(=O)Nc3ccc(C(=O)O)cc3)cc21 [I^2 g, 4-[[[[5,6-Dihydro-5,5-dimethyl-8-(2-N-methylpyrolyl)]-2-naphthalenyl]carbonyl]amino]benzoic acid]",ED30 (concentration to reach 30% (half-maximum) utriculi reduction),rhino mouse utriculi,2070 µM
"CC1(C)CC=C(c2ccoc2)c2cc(C(=O)Nc3ccc(C(=O)O)cc3)ccc21 [I^2 d, 4-[[[[5,6-Dihydro-5,5-dimethyl-8-(3-furyl)]-2-naphthalenyl]carbonyl]amino]benzoic acid]",activity in rhino mouse utriculi reduction model (in words),rhino mouse utriculi,inactive
Cc1ccsc1C1=CCC(C)(C)c2ccc(C(=O)Nc3ccc(C(=O)O)cc3)cc21 [I^2 b],IC50,L2987; [2],50 µM
"CC1(C)CC=C(c2cccnc2)c2cc(C(=O)Nc3ccc(C(=O)O)cc3)ccc21 [I^2 f, 4-[[[[5,6-Dihydro-5,5-dimethyl-8-(3-pyridinyl)]-2-naphthalenyl]carbonyl]amino]benzoic acid]",activity in rhino mouse utriculi reduction model (in words),rhino mouse utriculi,inactive
"CC1(C)CC=C(c2cccs2)c2cc(C(=O)Nc3ccc(C(=O)O)cc3)ccc21 [I^2 a, 4-[[[[5,6-Dihydro-5,5-dimethvl-8-(2-thienyl)]-2naphthalenyl]carbonyl]amino]benzoic acid]",IC50,L2987; [2],64 µM
same,ED30 (concentration to reach 30% (half-maximum) utriculi reduction),rhino mouse utriculi,> 10000 µM
"CC1=C(/C=C/C(C)=C/C=C/C(C)=C/C(=O)O)C(C)(C)CCC1 [All trans retinoic acid, reference compound]",IC50,"L2987; L2987, 120 h",68 µM
